From US20100041751A1, “Method to Reduce Oxidative Damage and Improve Mitochondrial Efficiency” (ACCERA, INC., priority 2005, published 2010)
Entries after “also recorded” stand apart in the source; their conditions may differ. Where two headings read alike, the source gives them in different places.

Legend:
[1] = cited from earlier work; for amount that will dissolve in water: in 1 liter of water at 20° C.
[2] = Serum beta-hydroxybutyrate (BHB) levels in aged beagle dogs fed MCTs; format: in vivo
Experimental: Reducing oxidative damage and improving mitochondrial efficiency. Two groups of aged beagle dogs were tested for the effects of feeding MCT on oxidative damage and mitochondrial efficiency. The first group was maintained on MCTs (2 g/kg/day) and the second group on placebo control over a 2-month period. Blood samples were taken over 5 time points to monitor levels of the ketone body, beta-hydroxybutyrate (BHB). After two months of treatment, the dogs were anaesthetized and brain biopsies were collected for mitochondrial analysis. The animals were then euthanized and brain tissue was harvested for further analysis of mitochondrial function and protein levels.
The eight subjects (8-11 years) were divided into two equal sized groups, matched for age and sex. The first group was administered 2 g/kg/day of MCTs, which was added to their maintenance diet, and the other received only the maintenance diet. The test substance was manually added to the dog's normal chow and introduced over three days, such that one-third of the maximum dose was administered on the first day, two-thirds on the second day and the full dose on the third day. The subjects were maintained on the test substance over a two-month period. Blood samples for BHB analysis were taken on: Baseline (Day 0), Day 4, Day 14, Day 28, Biopsy/Euthanasia (Day 56 or 57).
Biopsy procedure. Approximately 30 minutes prior to surgery, a blood sample was taken for BHB analysis and then the animals were pre-medicated with acepromazine. Animals were induced using isoflurane (inhaled) via a facemask. The animal then were intubated and maintained in a deep plane of anaesthesia using isoflurane. […]
Serum BHB levels were assessed at five different time-points: (1) prior to treatment onset (T0), (2) after 4 days of treatment (T1), (3) after 14 days of treatment (T2), (4) after 28 days of treatment (T3), and (5) on the biopsy date (T4). The levels were analyzed using a repeated-measures ANOVA with time-point (T0 vs. T1 vs. T2 vs. T3 vs. T4) as a within-subject variable and group (control vs. MCT) as a between-subject variable.

brain mitochondria = assay: Respiration assays on brain mitochondria isolated from biopsies of MCT-fed aged beagle dogs; format: in vivo; conditions: for respiratory control ratio (RCR), coupling of respiration with ATP production: state III / state IV respiration, treatment vs control
Experimental: On the day of biopsy, the treatment group was administered 2 g/kg of MCTs and the control group was administered an isocaloric solution of sucrose by an oral-gastric tube. Approximately two hours after dosing, the animals were anaesthetized and biopsies were taken from the frontal and parietal lobes. Immediately after removing the biopsy tissue, the animals were euthanized with an injectable euthanizing agent.
Using the biopsied material, brain mitochondria were isolated and the following parameters were assayed in real-time:
Mitochondrial Assays. Mitochondria were isolated using differential centrifugation and released from synaptosomes using a nitrogen cell disrupter (1000 psi for 5 minutes).
The respiration assays were conducted using standard polarography in a sealed, thermostated, stirred chamber containing a Clark-type electrode, which measures oxygen within the chamber. The system was calibrated with oxygen-saturated water, to standardize the quantification of oxygen consumption. The assays were conducted at 37° C.
Once the mitochondria were inserted into the Oxytherm, complex I driven respiration (state II respiration) was measured by adding pyruvate and malate (2.5 and 5 mM). Subsequently, 150 μM ADP was added to induce state III respiration, which measured the rate of active respiration. Oligomycin was added to inhibit ATP synthase and put the mitochondria into state IV respiration. To assess UCP activity, free fatty acids were added. FCCP then was added to completely uncouple the mitochondria by depolarizing the membrane potential, which caused maximum electron transport activity and maximum oxygen consumption. Finally, rotenone was added to inhibit complex I electron transport and succinate was added to measure maximum complex II-driven electron transport and oxygen consumption (complex II-driven respiration). The respiratory control ratio (RCR) was tabulated by dividing state III respiration rates by state IV respiration rates.
The respiration rates that were tabulated on-site were analyzed using repeated-measures ANOVAs. For each measure, brain region (frontal vs. parietal) was the within-subject variable and group (control vs. MCT) was the between-subject variable.

[3] = system: brain tissue fractions (mitochondrial, P1, cytosolic); assay: Markers of oxidative damage in brain fractions of MCT-fed aged beagle dogs; format: in vivo; conditions: MCT vs control
Experimental: The remaining mitochondria were stored in 10% DMSO at −80° C. and assayed for UCP isoforms by western blot and quantification of oxidative damage in the mitochondrial, P1 and cytosolic fractions. Mitochondria from the biopsied tissue were frozen and analyzed for oxidative damage using markers of peroxynitrite, lipid peroxidation and 3-nitrotyrosine. Markers of Oxidative Damage. The markers of oxidative damage were analyzed using a repeated-measures ANOVA with region (frontal vs. parietal) and fraction (mitochondrial vs. P1 vs. cytosolic) as the within-subject variables and group (control vs. MCT) as the between-subject variable.

MPTP treated mice = assay: MPTP mouse model of Parkinson's disease; format: in vivo, C57BL mice
Experimental: 8- to 10-week-old male C57BL mice will be divided into four groups: control, MPTP treated plus dextrose, and MPTP treated plus MCT. In dextrose treated pups, 0.5 g/kg of dextrose will be administered by oral gavage 2 to 4 hours before MPTP treatment. In MCT treated pups, 0.5 g/kg of MCTs will be administered by oral gavage 2 to 4 hours before MPTP treatment. Each mouse will then be randomly assigned to receive four intraperitoneal injections of either MPTP (18 mg/kg of free base in saline) or saline at 2-hour intervals. Mice will subsequently be tested for motor performance on a rotarod. The rotarod will consist of four rotating rods of 3 cm diameter in separated compartments. Seven days after MPTP or saline injections the mice will be first pretrained three times (1 hour apart) using an accelerating mode. After the training sessions, the time on the rod will be recorded for successive rotational speeds, and the overall rod performance (ORP) for each mouse calculated.
Seven days after the last MPTP injection, mice will be killed and their brain tissue processed for immunohistochemical studies to examine levels of oxidative stress and effects of MPTP treatment. Cell fractions from the biopsied tissue will be frozen and analyzed for oxidative damage using markers of peroxynitrite, lipid peroxidation and 3-nitrotyrosine. […] In addition mitochondria will be isolated from each group and examined for mitochondrial efficiency.

## CCCCCC(=O)O [Caproic, caproic acid]
[1]
  Solubility: 9.7 grams of acid per liter
  amount that will dissolve in water: 9.7 grams

## CCCCCCCCCCCCCCCC(=O)O [Palmitic, palmitic acid]
[1]
  amount that will dissolve in water: 0.007 grams

## CCCCCCCC(=O)OCC(COC(=O)CCCCCCC)OC(=O)CCCCCCC [MCTs, tri-C8:0 medium chain triglycerides]
[2]; aged beagle dogs, MCTs 2 g/kg/day for 2 months vs control
  levels of serum BHB: increased levels of serum BHB
[2]; biopsy date (Day 56 or 57), MCT vs control, p=0.012
  Serum BHB levels at T4: significantly higher
[2]; day 28 of treatment, MCT vs control, p=0.041
  Serum BHB levels at T3: significantly higher
Brain mitochondria; parietal and frontal cortices vs control, group effect p=0.008
  State III respiration: more oxygen consumption per minute than the control group
Brain mitochondria; parietal and frontal cortices vs control, marginally significant p=0.067
  State IV respiration: slightly more oxygen consumption per minute than the control group
Brain mitochondria; parietal and frontal cortices vs control, marginally significant p=0.086
  Uncoupling Protein (UCP) activity: consumed more oxygen per minute than the control animals
Brain mitochondria; parietal cortex vs frontal cortex
  improvement of mitochondrial function by brain region: more effective at improving mitochondrial function in the parietal cortex than the frontal cortex
Brain mitochondria; parietal cortex, oxygen consumption per minute per mg of tissue vs control, p=0.010
  State II respiration: significantly less oxygen consumption
Brain mitochondria
  respiratory control ratio (RCR), coupling of respiration with ATP production: better coupling of respiration with ATP formation
Brain mitochondria; listed as MCT
  respiratory control ratio (RCR), coupling of respiration with ATP production: better coupled to ATP production
Brain mitochondria; vs control, group effect p=0.002
  Complex I-driven respiration (maximum electron transport capacity): larger maximum electron transport activity than the control group
Brain mitochondria; vs control, region x group interaction p=0.047, listed as MCT
  Complex II-driven respiration: consumed more oxygen per minute than the control in the parietal cortex; also recorded: no difference
[3]; frontal and parietal, mitochondrial, P1 and cytosolic fractions
  Lipid oxidation, effect of group: no additional significant or marginally significant effects
[3]; peroxynitrite (protein oxidation), lipid oxidation and 3-nitrotyrosine
  signs of oxidative damage: decreased signs of oxidative damage; also recorded: decrease oxidative damage
MPTP treated mice; 0.5 g/kg MCTs oral gavage 2 to 4 hours before MPTP
  motor performance on rotarod: lessen the decline in motor performance
MPTP treated mice; brain tissue seven days after last MPTP injection
  signs of oxidative damage: fewer signs of oxidative damage
MPTP treated mice; isolated mitochondria
  mitochondrial efficiency: improved mitochondrial efficiency

## CCCCCCCCCCCCCC(=O)O [Myristic]
[1]; water at 20° C.
  Solubility: 0.02 grams of acid per liter

## CCCCCCCCCCCC(=O)O [Lauric]
[1]; water at 20° C.
  Solubility: 0.055 grams of acid per liter
